Source: patent US4323567A, “Arylmalonamido-1-oxadethiacephalosporins” (priority 1976, dated 1982)
Like-named read-outs stand apart in the source and are kept apart here.

What was measured:
Test in all cases: Minimal inhibitory concentration, nutrient agar plate
[1] = test system: Serratia marsescens 13880; assay type: cell-based; conditions: Serratia, 13880, inoculum size 10^8, pH 7.0, read-out: Minimal inhibitory concentration
Proteus mirabilis PR-4 = assay type: cell-based; conditions: inoculum size 10^8, pH 7.0, read-out: Minimal inhibitory concentration
Escherichia coli H = assay type: cell-based; conditions: inoculum size 10^8, pH 7.0, read-out: Minimal inhibitory concentration
E. coli 73 = assay type: cell-based, Escherichia coli; conditions: Escherichia coli, 73, inoculum size 10^8, pH 7.0, read-out: Minimal inhibitory concentration
Enterobacter cloacae 233 = assay type: cell-based; conditions: Enterobacter cloacae, 233, inoculum size 10^8, pH 7.0, read-out: Minimal inhibitory concentration
E. coli 377 = assay type: cell-based, Escherichia coli; conditions: Escherichia coli, 377, inoculum size 10^8, pH 7.0, read-out: Minimal inhibitory concentration
P. vulgaris CN-329 = assay type: cell-based; conditions: Proteus vulgaris, CN329, inoculum size 10^8, pH 7.0, read-out: Minimal inhibitory concentration
Klebsiella pneumoniae = assay type: cell-based; conditions: inoculum size 10^8, pH 7.0, read-out: Minimal inhibitory concentration
P. morganii No. 9 = assay type: cell-based, Proteus morganii; conditions: Morganella morganii, NO.9, inoculum size 10^8, pH 7.0, read-out: Minimal inhibitory concentration
Ps. aeruginosa 25619 = assay type: cell-based, Pseudomonas aeruginosa; conditions: Pseudomonas aeruginosa, 25619, inoculum size 10^8, pH 7.0, read-out: Minimal inhibitory concentration
Ps. aeruginosa 24 = assay type: cell-based, Pseudomonas aeruginosa; conditions: Pseudomonas aeruginosa, 24, inoculum size 10^8, pH 7.0, read-out: Minimal inhibitory concentration
Klebsiella sp. 363 = assay type: cell-based; conditions: inoculum size 10^8, pH 7.0, read-out: Minimal inhibitory concentration
[2] = test system: Pseudomonas aeruginosa Denken; assay type: cell-based; conditions: inoculum size 10^8, pH 7.0, read-out: Minimal inhibitory concentration
E. coli JC-2 = assay type: cell-based; conditions: Escherichia coli, JC2, inoculum size 10^8, pH 7.0, read-out: Minimal inhibitory concentration
[3] = ester, in the presence of 5% horse serum, sodium salt

## Cn1nnnc1SCC1=C(C(=O)[O-])N2C(=O)[C@@H](NC(=O)C(C(=O)Oc3ccc4c(c3)CCC4)c3ccccc3)[C@H]2OC1.[Na+] (stereo partly drawn) [Example III-2, sodium 7β-[α-(5-indanyl)oxycarbonyl-α-phenylacetamido]-3-(1-methyltetrazol-5-yl)thiomethyl-1-oxadethia-3-cephem-4-carboxylate]
[1]; [3]
  MIC: 0.78 µg/mL
Proteus mirabilis PR-4; PR4, ester, in the presence of 5% horse serum, sodium salt
  MIC: 0.39 µg/mL
Escherichia coli H; [3]
  MIC: 0.1 µg/mL
E. coli 73; [3]
  MIC: > 100 µg/mL
Enterobacter cloacae 233; [3]
  MIC: 0.39 µg/mL
E. coli 377; [3]
  MIC: 0.2 µg/mL
P. vulgaris CN-329; [3]
  MIC: 50 µg/mL
Klebsiella pneumoniae; [3]
  MIC: 0.2 µg/mL
P. morganii No. 9; [3]
  MIC: 0.39 µg/mL
Ps. aeruginosa 25619; [3]
  MIC: 6.25 µg/mL
Ps. aeruginosa 24; [3]
  MIC: > 100 µg/mL
Klebsiella sp. 363; SP.363, ester, in the presence of 5% horse serum, sodium salt
  MIC: > 100 µg/mL
[2]; [3]
  MIC: > 100 µg/mL
E. coli JC-2; [3]
  MIC: 0.2 µg/mL

## Cc1nnc(SCC2=C(C(=O)O)N3C(=O)[C@@H](NC(=O)Cn4cnnn4)[C@H]3OC2)s1 [(3), 7β-(1tetrazolyl)acetamido-3-(2-methyl-1,3,4-thiadiazol-5-yl)thiomethl-1-oxadethia-3-cephem-4-carboxylic acid, reference compound]
[1]; as sodium salt
  MIC: > 100 µg/mL
Proteus mirabilis PR-4; PR4, as sodium salt
  MIC: 1.56 µg/mL
Escherichia coli H; as sodium salt
  MIC: 1.56 µg/mL
E. coli 73; as sodium salt
  MIC: > 100 µg/mL
Enterobacter cloacae 233; as sodium salt
  MIC: > 100 µg/mL
E. coli 377; as sodium salt
  MIC: 25 µg/mL
P. vulgaris CN-329; as sodium salt
  MIC: > 100 µg/mL
Klebsiella pneumoniae; as sodium salt
  MIC: 3.13 µg/mL
P. morganii No. 9; as sodium salt
  MIC: 50 µg/mL
Ps. aeruginosa 25619; as sodium salt
  MIC: > 100 µg/mL
Ps. aeruginosa 24; as sodium salt
  MIC: > 100 µg/mL
Klebsiella sp. 363; SP.363, as sodium salt
  MIC: > 100 µg/mL
[2]; as sodium salt
  MIC: > 100 µg/mL
E. coli JC-2; as sodium salt
  MIC: 1.56 µg/mL

## CC1=C(C(=O)O)N2C(=O)[C@@H](NC(=O)C(N)c3ccccc3)[C@H]2OC1 (stereo partly drawn) [(1), 7β-(α-phenylglycinamido)3-methyl-1-oxadethia-3-cephem-4-carboxlic acid, reference compound]
[1]; as sodium salt
  MIC: > 100 µg/mL
Proteus mirabilis PR-4; PR4, as sodium salt
  MIC: > 100 µg/mL
Escherichia coli H; as sodium salt
  MIC: > 100 µg/mL
E. coli 73; as sodium salt
  MIC: > 100 µg/mL
Enterobacter cloacae 233; as sodium salt
  MIC: > 100 µg/mL
E. coli 377; as sodium salt
  MIC: > 100 µg/mL
P. vulgaris CN-329; as sodium salt
  MIC: > 100 µg/mL
Klebsiella pneumoniae; as sodium salt
  MIC: > 100 µg/mL
P. morganii No. 9; as sodium salt
  MIC: > 100 µg/mL
Ps. aeruginosa 25619; as sodium salt
  MIC: > 100 µg/mL
Ps. aeruginosa 24; as sodium salt
  MIC: > 100 µg/mL
Klebsiella sp. 363; SP.363, as sodium salt
  MIC: > 100 µg/mL
[2]; as sodium salt
  MIC: > 100 µg/mL
E. coli JC-2; as sodium salt
  MIC: > 100 µg/mL

## Cn1nnnc1SCC1=C(C(=O)O)N2C(=O)[C@@H](NC(=O)C(C(=O)O)c3cccs3)[C@H]2OC1 (stereo partly drawn) [Example III-8, 7β-[α-(2-thienyl)-α-carboxyacetamido]-3-(1-methyltetrazol-5-yl)thiomethyl-1-oxadethia-3-cephem-4-carboxylic acid]
[1]; as sodium salt
  MIC: 0.78 µg/mL
Proteus mirabilis PR-4; PR4, as sodium salt
  MIC: 0.2 µg/mL
Escherichia coli H; as sodium salt
  MIC: 0.1 µg/mL
E. coli 73; as sodium salt
  MIC: > 100 µg/mL
Enterobacter cloacae 233; as sodium salt
  MIC: 0.2 µg/mL
E. coli 377; as sodium salt
  MIC: 0.2 µg/mL
P. vulgaris CN-329; as sodium salt
  MIC: 50 µg/mL
Klebsiella pneumoniae; as sodium salt
  MIC: 0.1 µg/mL
P. morganii No. 9; as sodium salt
  MIC: 0.39 µg/mL
Ps. aeruginosa 25619; as sodium salt
  MIC: 3.13 µg/mL
Ps. aeruginosa 24; as sodium salt
  MIC: > 100 µg/mL
Klebsiella sp. 363; SP.363, as sodium salt
  MIC: > 100 µg/mL
[2]; as sodium salt
  MIC: > 100 µg/mL
E. coli JC-2; as sodium salt
  MIC: 0.1 µg/mL

## CC(=O)OCC1=C(C(=O)O)N2C(=O)[C@@H](NC(=O)Cc3cccs3)[C@H]2OC1 [(2), 7β-(2thienylacetamido)-1-oxadethiacephalosporanic acid, reference compound]
[1]; as sodium salt
  MIC: > 100 µg/mL
Proteus mirabilis PR-4; PR4, as sodium salt
  MIC: 1.56 µg/mL
Escherichia coli H; as sodium salt
  MIC: 0.39 µg/mL
E. coli 73; as sodium salt
  MIC: > 100 µg/mL
Enterobacter cloacae 233; as sodium salt
  MIC: > 100 µg/mL
E. coli 377; as sodium salt
  MIC: > 100 µg/mL
P. vulgaris CN-329; as sodium salt
  MIC: > 100 µg/mL
Klebsiella pneumoniae; as sodium salt
  MIC: 1.56 µg/mL
P. morganii No. 9; as sodium salt
  MIC: > 100 µg/mL
Ps. aeruginosa 25619; as sodium salt
  MIC: > 100 µg/mL
Ps. aeruginosa 24; as sodium salt
  MIC: > 100 µg/mL
Klebsiella sp. 363; SP.363, as sodium salt
  MIC: > 100 µg/mL
[2]; as sodium salt
  MIC: > 100 µg/mL
E. coli JC-2; as sodium salt
  MIC: 6.25 µg/mL
